# Test results as given in patent US9341616B2, “Sweet taste receptor chimeric proteins and use thereof” (AJINOMOTO CO., INC., priority 2014, dated 2016).
# Like-named read-outs stand apart in the source and are kept apart here. Residues, ends and D or L forms follow the SMILES beside them.
# Target: h-mT1R2-481/T1R3mosaicA (UniProt Q8TE23+Q925D8, A12W/A31M/A537S/A558R/A564V/A568V/A570T/A588V/A645S/A649T/A658V/A698V/A702T/A782V/A793V/A807V/C582S/C678S/E16H/E530V/E534N/E542M/E548N/E725V/F14L/F29L/F525Y/F541I/F612A/F622V/F665L/F695L/G696N/G701T/H484Y/H528R/H728R/I36V/I481V/I486P/I490V/I510L/I518V/I595M/I60P/I617V/I643V/I645L/I692L/I695G/I706V/I740A/I803L/K30R/K504M/K555R/K565R/K626T/K714N/K818R/K827G/L17P/L521P/L560F/L571I/L578I/L610P/L631F/L636F/L639V/L684P/L688V/L702I/L734M/L735F/L800F/L823M/L825Q/M19T/M492I/M616G/M644L/M682V/M690V/M744T/M748V/N52R/N540G/N541S/N547G/N58S/N63T/N675D/N721H/P545F/P561R/P564S/P61V/P638T/P824S/Q32K/Q536L/Q53S/Q546K/Q550E/Q555R/Q56R/Q611L/Q676H/Q757R/Q795R/Q831P/R498S/R632Q/R667S/S22P/S45E/S501P/S547N/S550A/S576L/S595F/S610P/S628F/S635P/S637R/S663R/S670G/S679G/S681F/S703N/S717H/S727G/S784D/S804G/T46A/T50G/T529S/T542A/T549I/T609V/T629S/T642S/T663I/T694M/T705I/T706G/T716I/T813A/V508I/V512P/V557A/V573A/V584A/V585L/V613L/V617M/V673M/V687A/V691A/V694A/V718L/V718M/V723A/V729T/V738A/V741L/V774I/V791M/V805L/V812A/V821L/W599R/W676R/W824R/Y533F/Y615F/Y671F/Y680C/Y769S/Y783H/Y794L)
# Conditions: HEK293E cells
# [1] = Table 3, genes h-mT481/T3mA (h-mT1R2-481, T1R3mA)
# [2] = Table 4, genes h-mT481/T3mA (h-mT1R2-481, T1R3mA)
# [3] = Table 5, genes h-mT481/T3mA (h-mT1R2-481, T1R3mA)
# [4] = Table 6, genes h-mT481/T1Rm3A (h-mT1R2-481, T1R3mA)
# Sequence of h-mT1R2-481/T1R3mosaicA (Q8TE23 with tags, fused parts or gaps with the stated changes limits assumed): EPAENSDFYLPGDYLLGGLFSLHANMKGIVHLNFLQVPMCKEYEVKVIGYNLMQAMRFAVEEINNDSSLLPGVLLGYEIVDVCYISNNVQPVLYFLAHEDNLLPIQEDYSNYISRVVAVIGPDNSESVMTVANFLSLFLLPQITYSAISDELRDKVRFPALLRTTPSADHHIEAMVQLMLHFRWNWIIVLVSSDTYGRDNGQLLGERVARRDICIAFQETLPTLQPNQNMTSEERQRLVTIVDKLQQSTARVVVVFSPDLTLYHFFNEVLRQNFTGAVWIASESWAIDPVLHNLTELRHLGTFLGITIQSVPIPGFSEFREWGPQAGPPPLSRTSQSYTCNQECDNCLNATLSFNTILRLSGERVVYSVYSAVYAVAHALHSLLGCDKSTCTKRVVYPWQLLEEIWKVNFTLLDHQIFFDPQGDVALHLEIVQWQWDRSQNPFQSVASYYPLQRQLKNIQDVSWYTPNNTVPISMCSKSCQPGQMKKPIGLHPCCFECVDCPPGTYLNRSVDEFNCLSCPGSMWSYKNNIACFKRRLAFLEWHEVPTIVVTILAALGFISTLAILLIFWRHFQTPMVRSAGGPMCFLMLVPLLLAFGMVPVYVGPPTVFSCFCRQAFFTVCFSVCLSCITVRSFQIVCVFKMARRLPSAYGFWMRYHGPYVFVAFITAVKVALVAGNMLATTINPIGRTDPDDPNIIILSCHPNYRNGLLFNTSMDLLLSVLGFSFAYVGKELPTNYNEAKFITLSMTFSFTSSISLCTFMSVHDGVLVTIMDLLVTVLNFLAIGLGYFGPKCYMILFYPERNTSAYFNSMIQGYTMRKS
# Sequence of h-mT1R2-481/T1R3mosaicA (Q925D8 with tags, fused parts or gaps with the stated changes limits assumed): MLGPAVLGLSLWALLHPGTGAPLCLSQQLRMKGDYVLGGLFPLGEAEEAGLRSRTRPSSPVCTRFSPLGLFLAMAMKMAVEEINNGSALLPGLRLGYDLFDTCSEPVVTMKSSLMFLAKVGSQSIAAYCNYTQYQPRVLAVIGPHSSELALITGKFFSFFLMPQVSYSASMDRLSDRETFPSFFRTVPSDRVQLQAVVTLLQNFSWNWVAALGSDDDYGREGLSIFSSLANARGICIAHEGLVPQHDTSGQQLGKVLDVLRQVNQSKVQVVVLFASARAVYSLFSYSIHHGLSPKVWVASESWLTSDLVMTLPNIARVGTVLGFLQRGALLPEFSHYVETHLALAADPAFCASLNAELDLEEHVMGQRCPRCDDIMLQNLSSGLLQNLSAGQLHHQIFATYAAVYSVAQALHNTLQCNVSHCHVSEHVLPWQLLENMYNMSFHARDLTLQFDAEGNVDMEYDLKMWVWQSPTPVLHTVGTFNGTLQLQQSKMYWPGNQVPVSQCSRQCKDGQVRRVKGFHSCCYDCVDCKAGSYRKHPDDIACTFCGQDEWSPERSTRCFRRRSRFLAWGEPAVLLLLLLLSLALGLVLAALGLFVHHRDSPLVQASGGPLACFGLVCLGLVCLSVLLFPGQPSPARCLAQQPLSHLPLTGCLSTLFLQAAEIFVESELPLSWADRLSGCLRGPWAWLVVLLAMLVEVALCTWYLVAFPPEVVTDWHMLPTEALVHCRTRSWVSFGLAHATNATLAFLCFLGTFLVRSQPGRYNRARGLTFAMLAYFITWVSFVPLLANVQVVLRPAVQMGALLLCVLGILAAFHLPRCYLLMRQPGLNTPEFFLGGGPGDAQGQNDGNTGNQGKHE
Structure (SMILES),S/N [1],S/N [2],S/N [3],S/N [4]
"OC[C@H]1O[C@H](O[C@]2(CCl)O[C@H](CCl)[C@@H](O)[C@@H]2O)[C@H](O)[C@@H](O)[C@H]1Cl [Sucralose, sucralose]",7.8,9.0,7.8,7.0
"CC1=CC(=O)NS(=O)(=O)O1 [Acesulfame K, acesulfame potassium]",4.7,5.4,4.7,6.0
"COC(=O)[C@H](Cc1ccccc1)NC(=O)[C@H](CC(=O)O)NCCCc1ccc(OC)c(O)c1 [Advantame, advantame]",10.6,11.3,10.6,10.5
"OC[C@H]1O[C@@](CO)(O[C@H]2O[C@H](CO)[C@@H](O)[C@H](O)[C@H]2O)[C@@H](O)[C@@H]1O [Sucrose, sucrose]",3.4,3.9,3.4,3.8
"COc1ccc(CCC(=O)c2c(O)cc(O[C@@H]3O[C@H](CO)[C@@H](O)[C@H](O)[C@H]3O[C@@H]3O[C@@H](C)[C@H](O)[C@@H](O)[C@H]3O)cc2O)cc1O [NHDC, neohesperidin dihydrochalcone]",–,–,4.3,5.9
"COC(=O)[C@H](Cc1ccccc1)NC(=O)[C@H](CC(=O)O)NCCC(C)(C)C [Neotame, neotame]",8.8,9.4,8.8,8.9
"C[C@H](NC(=Nc1ccc(C#N)cc1)NCC(=O)O)c1ccccc1 [SC-45647, [3-[(S)-1-phenylethyl]-2-(4-cyanophenyl)guanidino]acetic acid]",8.4,7.9,8.4,8.7
"O=C1NS(=O)(=O)c2ccccc21.[Na] [Saccharin Na, sodium saccharin]",5.6,5.6,5.6,6.9
"COC(=O)[C@H](Cc1ccccc1)NC(=O)[C@@H](N)CC(=O)O [Aspartame, aspartame] (HELM PEPTIDE1{D.F.[CO[*:1]]}$$$$V2.0)",7.0,9.4,7.0,7.3
